In EPA's ToxValDB 9.5:
Blank lines part the entries; values can stand above or below the compound they belong to.

What was measured:
Gallus gallus = settings: oral, diet
[1] = subchronic, duration: 90 days, oral, diet, M/F, Sprague-Dawley, no effects
[2] = subchronic, duration: 42 days, oral, gavage, M/F, body weight
[3] = subchronic, duration: 13 weeks, oral, diet, M/F, no effects
[4] = subchronic, duration: 90 days, oral

SMILES: CC(=O)NCCS(=O)(=O)O.CC(=O)NCCS(=O)(=O)O.[Mg]
NOAEL (Rattus norvegicus; subchronic, duration: 13 weeks, oral, gavage, M/F, Crj:CD, no effects): 1000 mg/kg-day

SMILES: Cc1nc2cccc(OCC(C)(C)C(=O)NC(C)C)c2c(N)c1C(=O)O
NOAEL (Rattus norvegicus; reproduction developmental, oral, gavage, F, Crj:CD, no effects): 1000 mg/kg-day
NOAEL (Rattus norvegicus; subchronic, duration: 13 weeks, oral, diet, M/F, Crj:CD, no effects): 100 mg/kg-day

SMILES: Cc1sc2nc(=O)[nH]c(N)c2c1C.Cl
NOAEL (Rattus norvegicus; subchronic, duration: 13 weeks, oral, diet, M/F, Sprague-Dawley, no effects): 60 mg/kg-day

SMILES: Cc1cc(OC2OC(CO)C(O)C(O)C2O)ccc1C(=O)C(C)(C)NC(=O)c1sccc1C (stereo not given)
NOAEL (Canidae; chronic, duration: 1 years, Dog Other, body weight): 1.57 mg/kg-day
NOAEL (Canidae; subchronic, duration: 90 days, oral, Dog Other, body weight): 5.34 mg/kg-day

SMILES: COc1cc(S(=O)(=O)[O-])c(C)cc1N=Nc1c(O)ccc2cc(S(=O)(=O)[O-])ccc12.[Na+].[Na+]
NOAEL (Rattus norvegicus; chronic, oral, M/F, body weight): 701 mg/kg-day
NOAEL (Rattus norvegicus; developmental, M, development): 701 mg/kg-day
NOAEL (Rattus norvegicus; reproduction developmental, growth): 695 mg/kg-day
NOAEL (Rattus norvegicus; reproduction developmental, oral, M/F, growth): 695 mg/kg-day

SMILES: CC1OCCC12SC1CCOC1(C)S2 (stereo not given)
NOAEL (Rattus norvegicus; subchronic, duration: 90 days, oral, diet, M, hematological): 25 mg/kg-day

SMILES: C[n+]1cccc(C(=N)[O-])c1.Cl
NOAEL (Rattus norvegicus; chronic, duration: 91 days, oral, gavage, M/F, clinical chemistry): 250 mg/kg-day

SMILES: NC(=O)Cc1cccc2ccccc12 [1-Naphthaleneacetamide]
NOAEL (Rattus norvegicus; developmental, development): 15 mg/kg-day
NOAEL (Rattus norvegicus; subchronic, duration: 90 days, oral, hematological): 10 mg/kg-day

SMILES: C=CCSCC=C [1-Propene, 3,3'-thiobis-]
NOAEL (Rattus norvegicus; chronic, duration: 14 weeks, oral, gavage, M/F, Wistar, no effects): 250 mg/kg-day

SMILES: CSCSCSC [2,4,6-Trithiaheptane]
NOAEL (Rattus norvegicus; [1]): 0.2 mg/kg-day

SMILES: CC1(O)CSC(C)(O)CS1 (stereo not given) [2,5-Dimethyl-1,4-dithiane-2,5-diol]
NOAEL (Rattus norvegicus; [1]): 3.14 mg/kg-day

SMILES: CC(=O)C1=NCCS1 [2-Acetyl-2-thiazoline]
NOAEL (Rattus norvegicus; subchronic, duration: 90 days): 1.8 mg/kg-day
NOAEL (Rattus norvegicus; subchronic, duration: 90 days, oral, diet, M/F, no effects): 1.8 mg/kg-day

SMILES: CCC(CC)C(=O)O [2-Ethylbutyric acid]
NOAEL (Rattus norvegicus; reproduction developmental, duration: 10 days, oral, gavage, F, Sprague-Dawley, no effects): 200 mg/kg-day
NOAEL (Rattus norvegicus; reproduction developmental, duration: 10 days, oral, gavage, F, no effects): 200 mg/kg-day

SMILES: CC(O)C(=O)NCCc1ccc(O)cc1 (stereo not given) [2-Hydroxy-N-[2-(4-hydroxyphenyl)ethyl]propanimidic acid]
NOAEL (Rattus norvegicus; subchronic, duration: 90 days, oral, M/F): 8.4 mg/kg-day

SMILES: COc1ccccc1C=O [2-Methoxybenzaldehyde]
NOAEL (Rattus norvegicus; subchronic, duration: 49 days, oral, gavage, histopathology: nonneoplastic): 10 mg/kg-day

SMILES: O=C1OC(=O)C2C3C=CC(C3)C12 (stereo not given) [2-Norbornene-5,6-dicarboxylic anhydride]
NOAEL (Rattus norvegicus; subchronic, duration: 90 days, oral, gavage, M/F, body weight): 250 mg/kg-day

SMILES: C=CCCN=C=S [3-Butenyl isothiocyanate]
NOAEL (Rattus norvegicus; chronic, duration: 721 days, oral, gavage, M/F, histopathology: neoplastic): 12 mg/kg-day

SMILES: CCOc1cc(C=O)ccc1O [3-Ethoxy-4-hydroxybenzaldehyde]
NOAEL (Rattus norvegicus; chronic, duration: 14 weeks): 500 mg/kg-day

SMILES: C=CCc1cc(OC)c(O)c(OC)c1 [4-Allyl-2,6-dimethoxyphenol]
NOAEL (Rattus norvegicus; subchronic, duration: 90 days, clinical chemistry): 300 mg/kg-day

LEL (Canidae; subchronic, duration: 90 days, Dog Other, no effects): 120 mg/kg-day
LEL (Rattus norvegicus; subchronic, duration: 90 days, oral, gavage, F, no effects): 120 mg/kg-day
SMILES: C=C(C)C1CC=C(CO)CC1 (stereo not given) [4-Isopropenylcyclohex-1-en-1-ylmethanol]

SMILES: COc1ccc(C=O)cc1 [4-Methoxybenzaldehyde]
NOAEL (Rattus norvegicus; [2]): 20 mg/kg-day

SMILES: COc1ccc(COC(C)=O)cc1 [4-Methoxybenzyl acetate]
NOAEL (Rattus norvegicus; [2]): 20 mg/kg-day

SMILES: CCC(=O)CC(C)CC (stereo not given) [5-Methyl-3-heptanone]
NOAEL (Rattus norvegicus; subchronic, duration: 13 weeks, oral, gavage, M, Sprague-Dawley, behavior): 82 mg/kg-day
NOAEL (Rattus norvegicus; subchronic, duration: 13 weeks, oral, gavage, M, Sprague-Dawley, clinical signs): 82 mg/kg-day
NOAEL (Rattus norvegicus; subchronic, duration: 13 weeks, oral, gavage, M, behavior): 82 mg/kg-day
NOAEL (Rattus norvegicus; subchronic, duration: 13 weeks, oral, gavage, M, neurology): 82 mg/kg-day

SMILES: CC(=O)OC1(C)CCCC(C)(C)C12CCC(C)O2 (stereo not given) [6-Acetoxydihydrotheaspirane]
NOAEL (Rattus norvegicus; subchronic, duration: 90 days, oral, diet, M/F, Crj:CD, food efficiency): 52 mg/kg-day

SMILES: CCCCCC1CC=CC(=O)O1 (stereo not given) [6-Pentyl-5,6-dihydro-2H-pyran-2-one]
NOAEL (Rattus norvegicus; subchronic, duration: 90 days): 12.1 mg/kg-day

SMILES: CCC/C=C/C=O [(2E)-2-Hexenal]
NOAEL (Rattus norvegicus; [3]): 257 mg/kg-day

SMILES: C/C=C/C=C/C=O [(2E,4E)-2,4-Hexadienal]
NOAEL (Rattus norvegicus; chronic, duration: 14 weeks, oral, gavage, M/F, body weight): 15 mg/kg-day

SMILES: CC(C)(C)c1ccc(CC#N)cc1 [(4-tert-Butylphenyl)acetonitrile]
NOAEL (Rattus norvegicus; short-term, duration: 28 days): 6.5 mg/kg-day

SMILES: C=CC(C)(O)C/C=C/C(=C)C (stereo not given) [(E)-3,7-Dimethylocta-1,5,7-trien-3-ol]
NOAEL (Rattus norvegicus; [1]): 44 mg/kg-day

SMILES: C=CCSC(=O)CCCCC [Allyl thiohexanoate]
NOAEL (Rattus norvegicus; [4]): 6.63 mg/kg-day

SMILES: CSc1ccccc1 [Benzene, (methylthio)-]
NOAEL (Rattus norvegicus; [4]): 0.43 mg/kg-day

SMILES: Cc1occc1SSc1ccoc1C [Bis(2-methyl-3-furyl)disulfide]
NOAEL (Rattus norvegicus; subchronic, duration: 90 days, oral, diet, M/F, Wistar, no effects): 0.45 mg/kg-day
NOAEL (Rattus norvegicus; subchronic, duration: 90 days, oral, diet, Wistar, no effects): 0.45 mg/kg-day

SMILES: CC(C)(c1ccc(OCC2CO2)cc1)c1ccc(OCC2CO2)cc1 (stereo not given) [Bisphenol A diglycidyl ether]
NOAEL (Rattus norvegicus; chronic, duration: 2 years, oral, gavage, M/F, Fischer 344, organ weight): 15 mg/kg-day

SMILES: COc1ccc(O)c(C(C)(C)C)c1 [Butylated hydroxyanisole]
NOAEL (Rattus norvegicus; developmental, oral, Sprague-Dawley, development): 100 mg/kg-day

SMILES: CCCCOC(=O)c1ccccc1C(=O)OCCCC [Dibutyl 1,2-benzenedicarboxylate]
LOAEL (Rattus norvegicus; reproduction developmental, oral, F, histopathology: nonneoplastic): 2 mg/kg-day

SMILES: CC(C)SSSC(C)C [Diisopropyl trisulfide]
NOEL (Rattus norvegicus; subchronic, duration: 13 weeks, oral, gavage): 4.8 mg/kg-day

SMILES: CS(C)=O [Dimethyl sulfoxide]
NOAEL (Rattus norvegicus; repeat dose other, oral, gavage, F, no effects): 1000 mg/kg-day

SMILES: C[N+](C)(C)[C@@H](Cc1c[nH]c(=S)[nH]1)C(=O)[O-] [Ergothioneine]
NOEL (Rattus norvegicus; reproduction developmental, duration: 13 weeks, oral, diet, M/F, Sprague-Dawley, no effects): 725 mg/kg-day
NOAEL (Rattus norvegicus; short-term, duration: 28 days, oral, gavage, M/F, Sprague-Dawley, hematological): 800 mg/kg-day

SMILES: CCCCCCCCCCCC(=O)N[C@@H](CCCN=C(N)N)C(=O)OCC.Cl [Ethyl-N2-dodecanoyl-L-argininate hydrochloride]
NOAEL (Rattus norvegicus; subchronic, duration: 13 weeks, oral, M/F, Sprague-Dawley, clinical chemistry): 47 mg/kg-day

SMILES: CCN(Cc1cccc(S(=O)(=O)[O-])c1)c1ccc(C(=C2C=CC(=[N+](CC)Cc3cccc(S(=O)(=O)[O-])c3)C=C2)c2ccccc2S(=O)(=O)[O-])cc1.[Na+].[Na+] [FD&C Blue No. 1]
NOAEL (Rattus norvegicus; chronic, duration: 30 months, oral, diet, M/F, mortality): 631 mg/kg-day
NOAEL (Rattus norvegicus; chronic, other): 631 mg/kg-day

SMILES: NCC(=O)[O-].NCC(=O)[O-].[Fe+2] [Ferrous bisglycinate]
LD50 (Rattus norvegicus; acute, oral, M/F, mortality): 2800 mg/kg-day
NOAEL (Rattus norvegicus; subchronic, duration: 13 weeks, oral, Sprague-Dawley, no effects): 500 mg/kg-day

SMILES: C=O [Formaldehyde]
LEL (Gallus gallus; short-term, duration: 28 days, no effects): 990 mg/kg-day
NOAEL (Rattus norvegicus; chronic, duration: 104 weeks, oral, drinking water, M/F, Wistar, histopathology: nonneoplastic): 15 mg/kg-day

SMILES: CCOC(OCC)c1ccco1 [Furan, 2-(diethoxymethyl)-]
NOEL (Rattus norvegicus; subchronic, duration: 90 days, oral, diet, M/F, Fischer 344, hematological): 54 mg/kg-day

SMILES: CC(C=O)c1ccccc1 (stereo not given) [Hydratropaldehyde]
NOAEL (Rattus norvegicus; chronic, duration: 15 weeks, oral, gavage, M/F, organ weight): 50 mg/kg-day

LEL (Rattus norvegicus; subchronic, duration: 90 days, oral, gavage, M/F, Sprague-Dawley, histopathology: neoplastic): 1000 mg/kg-day
SMILES: NCCCC[C@H](N)C(=O)O.O=S(=O)(O)O [L-Lysine sulphate]

SMILES: C=CC(C)(O)CCC=C(C)C (stereo not given) [Linalool]
NOAEL (Rattus norvegicus; short-term, duration: 28 days, oral, M/F, histopathology: nonneoplastic): 117 mg/kg-day

SMILES: COC(=O)c1cc(Cl)ccc1Cl [Methyl 2,5-dichlorobenzoate]
NOAEL (Rattus norvegicus; short-term, duration: 28 days, oral, clinical signs): 100 mg/kg-day

SMILES: CNc1ccccc1C(=O)OC [Methyl N-methylanthranilate]
NOAEL (Rattus norvegicus; subchronic, duration: 90 days, organ weight): 20 mg/kg-day

SMILES: COC(=O)c1ccccc1O [Methyl salicylate]
NOAEL (Canidae; chronic, duration: 2 years, Dog Other): 50 mg/kg-day
NOAEL (Rattus norvegicus; chronic, duration: 2 years, oral, growth): 50 mg/kg-day

SMILES: COC(=O)CSCc1ccco1 [Methyl {[(furan-2-yl)methyl]sulfanyl}acetate]
NOAEL (Rattus norvegicus; subchronic, duration: 90 days, oral, diet, M/F, clinical chemistry): 5.78 mg/kg-day

SMILES: C=CC(=C)CCC=C(C)C [Myrcene]
NOAEL (Rattus norvegicus; [1]): 44 mg/kg-day

SMILES: C[C@@H]1O[C@@H](O[C@H]2[C@H](Oc3cc(O)c4c(c3)O[C@H](c3ccc(O)cc3)CC4=O)O[C@H](CO)[C@@H](O)[C@@H]2O)[C@H](O)[C@H](O)[C@H]1O [Naringin]
NOAEL (Rattus norvegicus; chronic, duration: 400 days, oral, diet, food consumption): 1250 mg/kg-day

SMILES: O=C(O)c1cc(=O)[nH]c(=O)[nH]1 [Orotic acid]
NOAEL (Rattus norvegicus; chronic, duration: 20 weeks, oral, diet, histopathology: neoplastic): 50 mg/kg-day

SMILES: O=C(/C=C/C=C/c1ccc2c(c1)OCO2)N1CCCCC1 [Piperine]
NOAEL (Rattus norvegicus; subchronic, duration: 90 days, oral, diet, M/F, Crj:CD, clinical chemistry): 5 mg/kg-day

SMILES: O=Cc1ccc2c(c1)OCO2 [Piperonal]
NOAEL (Rattus norvegicus; chronic, duration: 2 years): 250 mg/kg-day

SMILES: SCCc1cnccn1 [Pyrazineethanethiol]
NOAEL (Rattus norvegicus; [3]): 1.63 mg/kg-day

SMILES: CSc1cnccn1 [Pyrazinyl methyl sulfide]
NOAEL (Rattus norvegicus; [3]): 1.63 mg/kg-day

SMILES: CCSC(C)=O [S-Ethyl thiolacetate]
NOEL (Rattus norvegicus; subchronic, duration: 13 weeks, oral, diet): 6.5 mg/kg-day

LEL (Gallus gallus; subchronic, duration: 39 days, M/F, food consumption): 10000 mg/kg-day
SMILES: CN(C)CC(=O)O.[H-].[Na+] [Sodium N,N-dimethylglycinate]

SMILES: O=C1O[C@H]([C@H](O)CO)C([O-])=C1O.[Na+] [Sodium erythorbate]
NOAEL (Rattus norvegicus; chronic, duration: 2 years, oral, drinking water, M/F, Fischer 344, body weight): 650 mg/kg-day

SMILES: [Na+].[Na+].[O-]B1OB2OB([O-])OB(O1)O2 [Sodium tetraborate (Na2B4O7)]
NOAEL (Rattus norvegicus; developmental, duration: 20 days, F, Sprague-Dawley, development): 55 mg/kg-day

SMILES: OC[C@H]1O[C@@H]2O[C@H]3[C@H](O)[C@@H](O)[C@@H](O[C@H]4[C@H](O)[C@@H](O)[C@@H](O[C@H]5[C@H](O)[C@@H](O)[C@@H](O[C@H]6[C@H](O)[C@@H](O)[C@@H](O[C@H]7[C@H](O)[C@@H](O)[C@@H](O[C@H]1[C@H](O)[C@H]2O)O[C@@H]7CO)O[C@@H]6CO)O[C@@H]5CO)O[C@@H]4CO)O[C@@H]3CO [alpha-Cyclodextrin]
NOAEL (Canidae; subchronic, duration: 90 days, oral, diet, M/F, Beagle, no effects): 10000 mg/kg-day
